Measurements taken from patent US20100069319A1, “Mercaptopurine derivatives and uses thereof” (priority 2007, published 2010).

Assays:
[1] = Nonactive 6-MP dimers in the medium of treated cell lines
From the text: The fact that only a fraction of the thiopurine molecules occurs in its active form explains the need for a high prodrug concentration. The allylthio moiety of the new derivative protects the free SH from such oxidation. Only later, upon entry to the cellular reducing environment is the mixed disulfide SA-6MP cleaved, which renders higher efficiency at lower concentrations. The proposed mechanism for the reaction of SA-6MP with free thiols in the cell is depicted in Scheme 2 hereinafter.

[2] = test system: MDR HT-29 cells; assay: Cell death by trypan blue dye exclusion / PI; type: cell-based, human; details: 16 h; for sensitivity to treatment (cell death, words): MDR HT-29, 100 μM
Protocol: (§1) Cell death was monitored by trypan blue dye exclusion test or propidium iodide (PI) incorporation. Treated cells were incubated with PI (2 μg/ml) for 20 min at 37° C., washed with HBS and examined by fluorescence microscopy or analyzed by flow cytometry using fluorescence-activated cell sorting (Becton Dickinson FACScan Instrument using CellQuest software (BD Bioscience, San Jose, Calif.). Monolayer cells were trypsinized and washed with HBS before FACS analysis.
(§2) In parallel, the trypan blue dye exclusion test was used to assess cell death. In particular, different concentrations of 6MP and SA-6MP were applied to various cell cultures (Daudi and Hela cells, each at 30,000 cells/well) as described in Materials and Methods. The cells were stained with trypan blue to monitor the lethal effect of several concentrations of the tested conjugates as the percentage of dead cells. As shown in FIG. 3A-3D, cell death induced by 6-MP and SA-6MP was both concentration and cell type dependent. […] SA-6MP at concentrations higher than 150 μM reduced the residual viability to 75% (FIG. 3D).

[3] = test system: Hela cells; assay: Cell death by trypan blue dye exclusion / PI; type: cell-based, human; details: 16 h; for sensitivity to treatment (cell death, words): 100 μM
Protocol: as §1, §2

[4] = test system: B-CLL cells; assay: Cell death by trypan blue dye exclusion / PI; type: cell-based, human; details: 16 h
Protocol: as §1, §2

[5] = test system: Hela cells; assay: [3H] thymidine incorporation into DNA (cell proliferation); type: cell-based, human; details: 16 h
Protocol: (§3) The effects of 6-MP derivatives on DNA synthesis were assessed by [Methyl-^3H] thymidine incorporation into DNA. All the experiments performed with cells were carried out at least in triplicates. Adhesive cells (N87, Hela HtTA-1 and MDR HT-29) were seeded at 10,000 cells/well (96-well plate) or 60,000 cells/well (24-well plate). Cells in suspension (B-CLL, Daudi, HL-60, Jurkat, MOLT4 and U937cells) were seeded at 15,000 cells/well (96-wells plate) or 100,000 cells/well (24-wells plate). Adhesive cells were grown at 37° C. for 6 h after seeding, before treatment. For the assessment of [Methyl-^3H] thymidine incorporation, cells were treated with various concentrations of 6-MP derivatives at 37° C. for 16 h in the presence of [Methyl-^3H] thymidine (0.8-1.0 μCi/well). Then, plates were frozen (−20° C., 1 h). Adhesive cells were trypsinized before harvesting. Cells in suspension were directly harvested after thawing out the frozen cells.
(§4) The antiproliferative effect of 6-MP and SA-6MP on various cell lines was assessed by determining [^3H] thymidine incorporation into the DNA. 6-MP and SA-6MP at 0-200 μM were applied to Daudi, Hela and N87 cells cultured in 96-well plates in the presence of [^3H] thymidine, as described in Materials and Methods. […] As further shown, the sensitivity to the prodrug is cell type dependent.

[6] = test system: N87 cells; assay: as above; type: cell-based, human; details: 16 h
Protocol: as §3, §4

[7] = test system: MDR HT-29 cells; assay: Cell death assessment by PI staining, phase-contrast and fluorescence microscopy; type: cell-based, human; details: MDR HT-29, 150 μM, 16 h
Protocol: as §1
In order to determine the toxic effect of 6-MP and SA-6MP on multidrug resistant cell lines, MDR HT-29 cells were treated for 16 h with 150 μM of either 6-MP or SA-6MP for 16 h, and were then stained with PI.

[8] = test system: Daudi cells; assay: [3H] thymidine incorporation into DNA (cell proliferation); type: cell-based; details: 16 h
Protocol: as §3, §4

[9] = test system: U937; assay: Anti-proliferative concentration IC50 (Table 2); type: cell-based, human; details: Homo sapiens, U-937; U937, 16 h, tested at 0-100 μM; read-out: Anti-proferative concentration - IC50 (mean ± SE)
Protocol: (§5) Cell proliferation was determined by the XTT viability assay in 96-well plates, based on the reduction of tetrazolium salt to soluble formazan compounds by living cells. Cells (10,000-15,000 cells/well) were seeded in a 96-well plate. After 16 h incubation with various concentrations of 6-MP, 6-MPR and their S-allylthio-derivatives, 50 μl of XTT/PMS mixture (50 μM PMS, 0.1% XTT in medium) was added onto the cells. After an incubation period of 3-4 h at 37° C. the absorbance of the samples was measured in an ELISA Reader at 450 nm. SDS (1%, 10 μl/well) was added to reference wells before adding the XTT/PMS solution.
(§6) The results of viability and proliferation were expressed as mean values±SD (n=3-6). For each cell line, the results were analyzed using two-way analysis of variance (ANOVA) followed by Bonferroni's posttest for the factors of the drugs used and their various concentrations, considering p<0.05 as significant. IC50 values (mean±SEM) were obtained from the linear range of the viability curve versus drug concentration (XTT assay).
(§7) In particular, cell in suspension, namely, Daudi, HL-60, U937, Molt-4, Jurkat and B-CLL, were tested at prodrug concentration of 0-100 μM, and monolayer cells, namely, Hela HtTA-1, MDR HT-29 and N87, were tested at prodrug concentration of 0-200 μM. in both cases, cell viability was determined by trypan blue dye exclusion assay. Data are presented in Table 2 hereinbelow for 6MP derivatives-treated for 16 h.

[10] = test system: Hela; assay: Anti-proliferative concentration IC50 (Table 2); type: cell-based, human; details: Homo sapiens, 16 h, tested at 0-200 μM, read-out: Anti-proferative concentration - IC50 (mean ± SE)
Protocol: as §5, §6, §7

[11] = test system: MDR HT-29; assay: Anti-proliferative concentration IC50 (Table 2); type: cell-based, human; details: Homo sapiens; MDR HT-29, 16 h, tested at 0-200 μM; read-out: Anti-proferative concentration - IC50 (mean ± SE)
Protocol: as §5, §6, §7

[12] = test system: Jurkat; assay: Anti-proliferative concentration IC50 (Table 2); type: cell-based, human; details: Homo sapiens, 16 h, tested at 0-100 μM, read-out: Anti-proferative concentration - IC50 (mean ± SE)
Protocol: as §5, §6, §7

[13] = test system: Daudi; assay: Anti-proliferative concentration IC50 (Table 2); type: cell-based; details: Homo sapiens, 16 h, tested at 0-100 μM, read-out: Anti-proferative concentration - IC50 (mean ± SE)
Protocol: as §5, §6, §7

[14] = at the same concentrations (0-200 μM)
[15] = Homo sapiens, [3H] thymidine incorporation, read-out: concentration at which 50% inhibition was observed

Row | nonactive 6-MP dimers (purine-S-S-purine) in the medium [1] | IC50 [9] | IC50 [10] | IC50 [11] | IC50 [12] | IC50 [13] | IC50 [5, 15] | IC50 [8, 15] | Structure (SMILES) | sensitivity to treatment (cell death, words) [2] | sensitivity to treatment (cell death, words) [3] | viability at 200 µM ([3]; Homo sapiens, 200 μM) | sensitivity to treatment ([4]; 100-200 μM) | inhibition of proliferation [5, 14] | inhibition of proliferation [6, 14] | epithelial-like growth / cell death [7] | inhibition of proliferation [8, 14] | viability at 150 µM ([2]; Homo sapiens, MDR HT-29, 150 μM, read-out: viability compared to non-treated cells) | viability at 150 µM ([3]; Homo sapiens, 150 μM, read-out: viability compared to non-treated cells) | residual viability ([4]; concentrations higher than 150 μM) | IC50 [6, 15]
1 | dimers were indeed found in the medium | > 200 µM | > 200 µM | > 200 µM | > 200 µM | > 200 µM | – | – | Sc1ncnc2nc[nH]c12 [6-MP, 6-Mercaptopurine, reference compound] | almost non-sensitive | almost non-sensitive | 75% | almost insensitive | no inhibition of proliferation | no inhibition of proliferation | no inhibition was observed | no inhibition of proliferation | – | – | – | –
2 | not in the medium | 46.7 ± 4.8 µM | 114 ± 12 µM | 126 ± 19.1 µM | 54.7 ± 6.3 µM | 38.3 ± 3.9 µM | 110 µM | ~20 µM | C=CCSSc1ncnc2nc[nH]c12 [SA-6MP, S-allylthio-6-mercaptopurine] | almost non-sensitive | almost non-sensitive | – | – | – | – | epithelial-like growth was inhibited | – | 40% | 65% | 75% | 100 µM
